Drawing on patent US12162879B2, “Pyridopyrimidine derivative, preparation method therefor and medical use thereof” (Jiangsu Hengrui Medicine Co., Ltd., priority 2018, dated 2024), this text covers IC50 for five molecules.

Data set [1] concerns the target hERG potassium channel (Homo sapiens (Human), UniProt Q12809). Nature of the data set: Blocking effect on hERG potassium current, automatic patch clamp (Patchliner) on HEK293-hERG stable cell line. Format: cell-based. As to the method: The blocking effect of the compounds of the present application on hERG potassium current was determined using an automatic patch-clamp on a stable cell line transfected with hERG potassium channels.
The HEK293 cell line was transfected with pCDNA3.1(+) that had constructed the hERG gene. The monoclonal HEK293-hERG stable cell line was screened by adding G418. The HEK293-hERG stable cell line was subcultured at a density of 1:4 in MEM/EBSS medium (10% FBS, 400 μg/mL G418, 1% MEM non-essential amino acid solution (100×), 1% sodium pyruvate solution) and cultured within 48 to 72 hours for the automatic patch clamp experiment. On the day of the experiment, the cells were digested with 0.25% trypsin (life technologies, 12563-029), collected by centrifugation and resuspended with extracellular fluid (140 mM NaCl, 4 mM KCl, 1 mM MgCl2, 2 mM CaCl2, 5 mM MD glucose monohydrate, 10 mM HEPES, pH 7.4, 298 mOsmol) to obtain a cell suspension. The cell suspension was placed on the cell bank of the Patchliner instrument, the Patchliner instrument used a negative pressure controller to apply the cells to the chip (NPC-16), and the negative pressure attracted individual cells to the wells of the chip. When the whole cell mode was formed, the instrument got the hERG current according to the set hERG current-voltage program, and then the instrument automatically perfused the compound from low to high concentration. The currents at each concentration of the compound and the blank control current were analyzed by the HEAK EPC 10 patch clamp amplifier (Nanion), Pathlinersoftware and data analysis software provided by Pathcontrol HTsoftware.

The target of data set [2] is CYP3A4 (midazolam metabolite site) (Homo sapiens (Human), UniProt P08684). Nature of the data set: Inhibition of enzyme activity of midazolam metabolite site of CYP3A4 in human liver microsome. The conditions noted are these: midazolam probe substrate, 30 minutes. Type of data set: in vitro ADME. The procedure: The effect of the compounds of the present invention on the enzyme activity of midazolam metabolite site of CYP3A4 in human liver microsomes was determined by the following experimental method.
• 1. Phosphate buffer solution (PBS) (Shanghai Basalmedia Technologies Co., Ltd., B320, similarly hereinafter); • 2. NADPH (Sigma N-1630); • 3. Human liver microsome (Corning Gentest); • 4. ABI QTrap 4000 liquid chromatograph/mass spectrometer (AB Sciex); • 5. Inertsil C8-3 column, 4.6×50 mm, 5 μm (Dikma Technologies Inc., USA); and • 6. CYP probe substrate (15 μM midazolam, SIGMA UC429) and positive control inhibitor (ketoconazole, SIGMA K1003). II. Experimental Procedures
100 mM PBS buffer was formulated, which was then used to formulate 2.5 mg/ml human microsome solution and 5 mM NADPH solution. The 5× concentration of the compound working solution was diluted with PBS in gradients (150, 50, 15, 5, 1.5, 0.15, 0.015, 0 μM). The 5× concentration of ketoconazole working solution was diluted with PBS in gradients (150, 50, 15, 5, 1.5, 0.15, 0.015, 0 μM). Midazolam working solution was diluted with PBS to a concentration of 15 μM.
(§1) 20 μl of 2.5 mg/ml microsome solution, 20 μl of 15 μM midazolam working solution, 20 μl of MgCl2 solution and 20 μl of the compound working solution (150, 50, 15, 5, 1.5, 0.15, 0.015, 0 μM, different reaction systems for each concentration) were mixed well. For the positive control group, the compound was replaced with the same concentration of ketoconazole. The mixture together with 5 mM NADPH solution was pre-incubated at 37° C. for 5 minutes. After 5 minutes, 20 μl of NADPH was added to each well, the reaction was initiated, and the plate was incubated for 30 minutes. All the incubated samples were present in duplicate. After 30 minutes, 250 μl of acetonitrile containing internal standard (100 ng/ml camptothecin) was added to all samples, mixed well, shaken at 800 rpm for 10 minutes, and then centrifuged at 3700 rpm for 10 minutes. 80 μl of the supernatant was taken and analyzed by LC-MS/MS.
The data was calculated by Graphpad Prism to obtain the IC50 values of the compounds on the midazolam metabolite site of CYP3A4, which are shown in Table 2.

The target in data set [3] is CYP3A4 (testosterone metabolite site) (Homo sapiens (Human), UniProt P08684). Kind of data set: Inhibition of enzyme activity of testosterone metabolite site of CYP3A4 in human liver microsomes. Type of data set: in vitro ADME. To be noted: human liver microsome, testosterone probe substrate, 30 minutes. The procedure:
The effect of the compounds of the present invention on the enzyme activity of testosterone metabolite site of CYP3A4 in human liver microsomes was determined by the following experimental method.
• 1. Phosphate buffer solution (PBS); • 2. NADPH (Sigma N-1630); • 3. Human liver microsome (Corning Gentest); • 4. ABI QTrap 4000 liquid chromatograph/mass spectrometer (AB Sciex); • 5. Inertsil C8-3 column, 4.6×50 mm, 5 μm (Dikma Technologies Inc., USA); and • 6. CYP probe substrate (testosterone/100 μM, […]) and positive control inhibitor (ketoconazole, Dr. Ehrenstorfer GmbH, C17322500). II. Experimental Procedures
100 mM PBS buffer was formulated, which was then used to formulate 2.5 mg/ml human microsome solution and 5 mM NADPH solution. The 5× concentration of the compound working solution was diluted with PBS in gradients (150, 50, 15, 5, 1.5, 0.15, 0.015, 0 μM). The 5× concentration of ketoconazole working solution was diluted with PBS in gradients (150, 50, 15, 5, 1.5, 0.15, 0.015, 0 μM). […] working solution was diluted with PBS to a concentration of 50 μM.
as §1, with “of 50” for “of 15”, “μM testosterone” for “μM midazolam”
The data was calculated by Graphpad Prism to obtain the IC50 values of the compounds on the testosterone metabolite site of CYP3A4, which are shown in Table 4.
(Liver microsomes are vesicles of endoplasmic reticulum, rich in cytochrome P450 enzymes.)

SMILES strings stand for the structures.

hERG potassium channel, sequence (Q12809 whole entry): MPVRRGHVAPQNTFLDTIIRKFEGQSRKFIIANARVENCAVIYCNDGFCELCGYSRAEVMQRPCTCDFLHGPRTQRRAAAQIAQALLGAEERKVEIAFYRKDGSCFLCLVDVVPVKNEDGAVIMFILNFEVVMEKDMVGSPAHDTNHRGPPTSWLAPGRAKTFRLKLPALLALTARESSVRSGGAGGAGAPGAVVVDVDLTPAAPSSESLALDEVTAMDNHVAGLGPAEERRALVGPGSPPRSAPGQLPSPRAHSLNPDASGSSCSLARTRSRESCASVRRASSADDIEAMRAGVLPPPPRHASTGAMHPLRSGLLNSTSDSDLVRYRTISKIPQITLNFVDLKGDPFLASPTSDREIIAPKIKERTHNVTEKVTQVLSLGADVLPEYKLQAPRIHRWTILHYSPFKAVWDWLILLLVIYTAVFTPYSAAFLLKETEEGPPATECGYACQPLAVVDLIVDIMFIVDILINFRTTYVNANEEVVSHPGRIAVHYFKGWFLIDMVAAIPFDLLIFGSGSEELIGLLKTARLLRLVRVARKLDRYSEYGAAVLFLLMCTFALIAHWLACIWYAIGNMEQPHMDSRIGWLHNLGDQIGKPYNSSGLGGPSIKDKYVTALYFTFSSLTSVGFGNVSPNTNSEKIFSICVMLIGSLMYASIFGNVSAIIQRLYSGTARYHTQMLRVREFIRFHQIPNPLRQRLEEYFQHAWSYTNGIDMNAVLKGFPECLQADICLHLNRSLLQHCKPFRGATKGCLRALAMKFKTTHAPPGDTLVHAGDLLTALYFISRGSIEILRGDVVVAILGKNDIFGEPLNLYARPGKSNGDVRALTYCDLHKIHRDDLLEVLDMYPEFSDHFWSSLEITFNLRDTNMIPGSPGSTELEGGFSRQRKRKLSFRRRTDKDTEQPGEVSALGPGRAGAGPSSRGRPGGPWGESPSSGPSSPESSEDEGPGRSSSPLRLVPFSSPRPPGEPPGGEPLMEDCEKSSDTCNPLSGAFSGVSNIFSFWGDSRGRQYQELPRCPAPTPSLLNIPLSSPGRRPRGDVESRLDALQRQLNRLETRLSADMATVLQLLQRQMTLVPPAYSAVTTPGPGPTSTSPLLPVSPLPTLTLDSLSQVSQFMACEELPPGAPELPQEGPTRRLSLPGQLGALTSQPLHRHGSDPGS
CYP3A4 (midazolam metabolite site), sequence (P08684 whole entry): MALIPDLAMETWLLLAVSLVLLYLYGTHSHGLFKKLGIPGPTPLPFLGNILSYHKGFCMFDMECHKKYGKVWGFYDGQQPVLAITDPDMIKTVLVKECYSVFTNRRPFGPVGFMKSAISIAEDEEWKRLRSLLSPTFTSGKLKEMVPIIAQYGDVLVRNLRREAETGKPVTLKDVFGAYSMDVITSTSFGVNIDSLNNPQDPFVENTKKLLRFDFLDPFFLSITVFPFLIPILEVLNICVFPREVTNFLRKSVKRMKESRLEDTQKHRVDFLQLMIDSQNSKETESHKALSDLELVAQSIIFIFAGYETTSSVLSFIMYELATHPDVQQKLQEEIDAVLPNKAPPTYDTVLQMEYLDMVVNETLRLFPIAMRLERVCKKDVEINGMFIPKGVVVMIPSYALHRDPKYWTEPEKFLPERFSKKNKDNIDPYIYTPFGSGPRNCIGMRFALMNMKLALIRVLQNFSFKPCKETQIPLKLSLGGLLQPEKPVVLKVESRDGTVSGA
CYP3A4 (testosterone metabolite site), sequence (P08684 whole entry): as above

Usually IC50 stands for the concentration that gives 50% inhibition. For `CCCC[C@](C)(CO)Nc1nc(N)nc2cc(-c3ccc(CN4CCCC4)nc3)cnc12` [Example 2, (R)-2-((2-Amino-7-(6-(pyrrolidin-1-ylmethyl)pyridin-3-yl)pyrido[3,2-d]pyrimidin-4-yl)amino)-2-methylhexan-1-ol], the half-maximal inhibitory concentration (IC50) is 7 µM in data set [1] and 27 µM in data set [2].
Consider `CCCC[C@](C)(CO)Nc1nc(N)nc2cc(-c3cnc(C4CCN(C)CC4)nc3)cnc12` [Example 8, (R)-2-((2-Amino-7-(2-(1-methylpiperidin-4-yl)pyrimidin-5-yl)pyrido[3,2-d]pyrimidin-4-yl)amino)-2-methylhexan-1-ol], for which the IC50 in data set [1], in data set [3] and in data set [2] was more than 30 µM each time.
Consider `CCCCC(C)(CO)Nc1nc(N)nc2cc(-c3ccc(CN4CCN(C)CC4)nc3)cnc12` (centres unmarked) [Example 5, 2-((2-Amino-7-(6-((4-methylpiperazin-1-yl)methyl)pyridin-3-yl)pyrido[3,2-d]pyrimidin-4-yl)amino)-2-methylhexan-1-ol], for which the results for the IC50 in data set [1], in data set [3] and in data set [2] were 17 µM, 8.3 µM and more than 30 µM, respectively.
The corresponding values for `CCCC[C@](C)(CO)Nc1nc(N)nc2cc(-c3ccc(CN4CCN(C)CC4)nc3)cnc12` [Example 6, (R)-2-((2-Amino-7-(6-((4-methylpiperazin-1-yl)methyl)pyridin-3-yl)pyrido[3,2-d]pyrimidin-4-yl)amino)-2-methylhexan-1-ol] are 26 µM, more than 30 µM and more than 30 µM.
For `CCCC[C@](C)(CO)Nc1nc(N)nc2cc(-c3ccc(C4CCN(C)CC4)nc3)cnc12` [Example 4, (R)-2-((2-Amino-7-(6-(1-methylpiperidin-4-yl)pyridin-3-yl)pyrido[3,2-d]pyrimidin-4-yl)amino)-2-methylhexan-1-ol] the same measures were 14 µM, 16 µM and more than 30 µM.
